This is an account of results in patent publication US12466820B2, “Amino quinazoline derivatives as P2X3 inhibitors” (CHIESI FARMACEUTICI S.p.A., priority 2019, dated 2025).

pIC50: −log10 of the molar value. Some results are limits rather than exact numbers.

For one assay, the target named is T1, h P2X2/3 (Homo sapiens, UniProt P56373+Q9UBL9).
T1 sequence (P56373 1-397): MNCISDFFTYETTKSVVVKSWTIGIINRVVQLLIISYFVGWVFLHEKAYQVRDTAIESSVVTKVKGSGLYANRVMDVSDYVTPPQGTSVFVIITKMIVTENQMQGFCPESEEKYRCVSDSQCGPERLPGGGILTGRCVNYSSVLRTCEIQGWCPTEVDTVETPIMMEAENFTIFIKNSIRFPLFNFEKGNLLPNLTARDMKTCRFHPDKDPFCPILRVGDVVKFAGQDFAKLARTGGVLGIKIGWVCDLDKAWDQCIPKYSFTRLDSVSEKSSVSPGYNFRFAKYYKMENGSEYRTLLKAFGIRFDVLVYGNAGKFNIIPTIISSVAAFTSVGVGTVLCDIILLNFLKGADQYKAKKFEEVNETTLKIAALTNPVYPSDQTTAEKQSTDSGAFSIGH
T1 sequence (Q9UBL9 1-471): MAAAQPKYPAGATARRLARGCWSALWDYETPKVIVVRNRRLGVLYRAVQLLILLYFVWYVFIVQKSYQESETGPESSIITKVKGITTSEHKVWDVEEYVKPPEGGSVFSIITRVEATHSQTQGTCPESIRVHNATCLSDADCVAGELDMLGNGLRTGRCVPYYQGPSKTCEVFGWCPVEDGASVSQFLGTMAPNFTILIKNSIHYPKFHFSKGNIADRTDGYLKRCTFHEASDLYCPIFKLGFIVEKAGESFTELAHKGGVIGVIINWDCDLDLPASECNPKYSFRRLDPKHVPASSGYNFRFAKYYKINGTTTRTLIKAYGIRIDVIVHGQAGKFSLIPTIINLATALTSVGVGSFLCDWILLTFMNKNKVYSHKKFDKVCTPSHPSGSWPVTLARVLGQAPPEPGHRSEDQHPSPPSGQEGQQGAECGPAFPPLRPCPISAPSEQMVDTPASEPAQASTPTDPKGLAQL
The assay is described as follows: In vitro electrophysiology assay for P2X2/3 (same protocol, 10 μM ATP as agonist). It counts as cell-based. The note with it: Table 7, range of activity. As for the experimental part:
Cells expressing P2X3 receptors were grown according to standard practice and maintained at 37° C. in a 5% humidified CO2 atmosphere. The cells were seeded into T175 flask 2 days prior to the day of the assay and dissociated from the flasks using TrypLE when grown to confluence of 80-90%. The dissociated cells were resuspended in serum free media at a cell density of 3×10^6 cells/ml and loaded onto the Sophion Qube automated patch-clamp system. The extracellular assay buffer contained 145 mM NaCl, 4 mM KCl, 2 mM CaCl2), 1 mM MgCl2, 10 mM HEPES, and 10 mM glucose at pH 7.4. The intracellular assay solution contained 140 mM CsF, 10 mM NaCl, 10 mM EGTA, 10 mM HEPES at pH 7.2. Agonist stock solutions were prepared in H2O and diluted in bath solution prior to use. All antagonists were prepared as 10 mM stock solutions in DMSO and diluted in bath solution prior to use. All experiments were performed under the whole-cell patch clamp configuration at room temperature with 384 individual cells being voltage clamped at −60 mV simultaneously on the Sophion Qube instrument. Two baseline responses were established with the application of α,β-MeATP (800 nM), with the subsequent agonist applications being washed out using extracellular assay buffer containing 0.5 U/ml apyrase. Following the second agonist application, antagonist was incubated in the absence of α,β-MeATP for 10 minutes. After antagonist preincubation, 800 nM α,β-MeATP and antagonist were co-administered to determine the inhibitory effect of the antagonist. One concentration of an antagonist was assessed against a single cell, with different concentrations of the antagonist applied to other cells on the 384 recording substrate. The control P2X3 current amplitude was taken from the peak current amplitude from the second agonist response prior to preincubation with antagonist. The peak P2X3 current amplitude in the presence of antagonist was used to calculate the inhibitory effect at each concentration of the antagonist according to the following equation: […]
Concentration-response curves were constructed from ten different concentrations with each concentration of antagonist tested on at least two individual cells. The concentration of the antagonist to inhibit P2X3 current by 50% (IC50) was determined by fitting the data with the following equation: […]
Where ‘a’ is minimum response, ‘b’ is maximum response, ‘c’ is IC50 and ‘d’ is Hill slope.
Representative compound of the present invention have been also tested for P2X2/3 receptor.
The same assay protocol was used for the P2X2/3 assay as the P2X3 assay with two modifications: 1) 10 μM ATP was used as the agonist; and 2) the mean current amplitude was measured seven seconds after the application of agonist.

The next assay has as its target T2, h P2X3 (Homo sapiens, UniProt P56373).
T2 sequence (P56373 1-397): T1 sequence (P56373 1-397)
In words: In vitro electrophysiology assay for P2X3 (automated whole-cell patch clamp, Sophion Qube). It counts as cell-based. The note with it: range of activity. The procedure, abridged:
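Whole-cell automated patch clamp at room temperature, cells held at −60 mV; after two 800 nM α,β-MeATP baseline responses, antagonist preincubated 10 min then co-applied with 800 nM α,β-MeATP. Inhibition of peak current vs second agonist response; IC50 from 10-concentration curves, one concentration per cell.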

Setting [1] is: Table 6, inhibition of P2X3 current, agonist α,β-MeATP (800 nM).

As to `COc1cc(-c2ncc(C)cn2)cc2c(NCc3cnc(C(F)(F)F)nc3)ncnc12` [Example 145, 8-methoxy-6-(5-methylpyrimidin-2-yl)-N-[[2-(trifluoromethyl)pyrimidin-5-yl]methyl]quinazolin-4-amine], the pIC50 (commonly −log10 of the IC50, conventionally taken in molar units) on h P2X2/3 is 5.50 to 6.50; at h P2X3 (setting [1]), over 6.50; at h P2X3 (Table 7), over 6.50.

Turning to `COc1cc(-c2ncc(C)s2)cc2c(NCc3cc(C)no3)ncnc12` [Example 111, 8-methoxy-N-[(3-methylisoxazol-5-yl)methyl]-6-(5-methylthiazol-2-yl)quinazolin-4-amine], the negative logarithm of the IC50 (pIC50) was 5.50 to 6.50 at h P2X2/3, over 6.50 at h P2X3 (setting [1]) and over 6.50 against h P2X3 (Table 7).

Turning to `COc1cc(-c2ncc(F)cn2)cc2c(NC(C)c3noc(C)n3)ncnc12` (stereo not drawn) [Example 108, 6-(5-fluoropyrimidin-2-yl)-8-methoxy-N-(1-(5-methyl-1,2,4-oxadiazol-3-yl)ethyl)quinazolin-4-amine], the negative-log IC50 (pIC50) on h P2X2/3 was 4.50 to 5.50; at h P2X3 (setting [1]) it was 5.50 to 6.50; at h P2X3 (Table 7), 5.50 to 6.50.

With `COc1cc(-c2ccc(C)cn2)cc2c(N[C@H](C)c3ccn(C)n3)ncnc12` [Example 159, 8-methoxy-N-[(1R)-1-(1-methylpyrazol-3-yl)ethyl]-6-(5-methyl-2-pyridyl)quinazolin-4-amine], the negative-log IC50 (pIC50) on h P2X2/3 is 4.50 to 5.50; on h P2X3 (setting [1]), over 6.50; against h P2X3 (Table 7), over 6.50.

Consider `COc1cc(-c2ncc(C)cn2)cc2c(N[C@H](C)c3noc(C)n3)ncnc12` [Example 7, 8-Methoxy-N-[(1R)-1-(5-methyl-1,2,4-oxadiazol-3-yl)ethyl]-6-(5-methylpyrimidin-2-yl)quinazolin-4-amine], for which the pIC50 on h P2X2/3 was 4.50 to 5.50; at h P2X3 (setting [1]), 5.50 to 6.50; against h P2X3 (Table 7), 5.50 to 6.50.

Turning to `COc1cc(-c2ccc(F)cn2)cc2c(NC(C)c3ccc(C(F)(F)F)nn3)ncnc12` (single isomer, unassigned) [Example 169, 6-(5-fluoro-2-pyridyl)-8-methoxy-N-[1-[6-(trifluoromethyl)pyridazin-3-yl]ethyl]quinazolin-4-amine], the pIC50 is 4.50 to 5.50 on h P2X2/3, over 6.50 on h P2X3 (setting [1]) and over 6.50 against h P2X3 (Table 7).

Turning to `COc1cc(-c2ccc(F)cn2)cc2c(NC(C)c3nc(C)no3)ncnc12` (single isomer, unassigned) [Example 176, 6-(5-fluoropyridin-2-yl)-8-methoxy-N-(1-(3-methyl-1,2,4-oxadiazol-5-yl)ethyl)quinazolin-4-amine], the pIC50 is 4.50 to 5.50 at h P2X2/3, over 6.50 at h P2X3 (setting [1]) and over 6.50 at h P2X3 (Table 7).

For the molecule `COc1cc(-c2ncc(C)cn2)cc2c(NCc3nc(C(F)(F)F)no3)ncnc12` [Example 144, 8-methoxy-6-(5-methylpyrimidin-2-yl)-N-[[3-(trifluoromethyl)-1,2,4-oxadiazol-5-yl]methyl]quinazolin-4-amine], the pIC50 on h P2X2/3 is 4.50 to 5.50; on h P2X3 (setting [1]), over 6.50; against h P2X3 (Table 7), over 6.50.

Regarding `COc1cc(-c2ccc(F)cc2)cc2c(NC(C)c3cccc(=O)[nH]3)ncnc12` (single isomer, unassigned) [Example 191, 6-(1-((6-(4-Fluorophenyl)-8-methoxyquinazolin-4-yl)amino)ethyl)pyridin-2(1H)-one], the pIC50 on h P2X2/3 was 5.50 to 6.50; on h P2X3 (setting [1]), over 6.50; against h P2X3 (Table 7), over 6.50.

For the molecule `COc1cc(-c2ccc(F)cc2)cc2c(NC(C)c3nc(-c4ccncc4)no3)ncnc12` (single isomer, unassigned) [Example 193, 6-(4-fluorophenyl)-8-methoxy-N-(1-(3-(pyridin-4-yl)-1,2,4-oxadiazol-5-yl)ethyl)quinazolin-4-amine], the pIC50 on h P2X2/3 was 5.50 to 6.50; at h P2X3 (setting [1]), over 6.50; at h P2X3 (Table 7), over 6.50.

Consider `COc1cc(-c2ccc(C)cn2)cc2c(NCc3nc(C)no3)ncnc12` [Example 142, 8-methoxy-N-[(3-methyl-1,2,4-oxadiazol-5-yl)methyl]-6-(5-methyl-2-pyridyl)quinazolin-4-amine], for which the negative logarithm of the IC50 (pIC50) is 4.50 to 5.50 at h P2X2/3, over 6.50 at h P2X3 (setting [1]) and over 6.50 against h P2X3 (Table 7).

With `COc1cc(-c2ncc(C)cn2)cc2c(NC(CO)c3nc(C)no3)ncnc12` (single isomer, unassigned) [Example 166], the results for the pIC50 on h P2X2/3, at h P2X3 (setting [1]) and against h P2X3 (Table 7) were 4.50 to 5.50, over 6.50 and over 6.50, respectively.

On to `COc1cc(-c2ccc(F)cn2)cc2c(NCc3ccc(C(F)(F)F)nc3)ncnc12` [Example 150, 6-(5-fluoropyridin-2-yl)-8-methoxy-N-((6-(trifluoromethyl)pyridin-3-yl)methyl)quinazolin-4-amineamine], for which the negative-log IC50 (pIC50) on h P2X2/3 is 4.50 to 5.50; on h P2X3 (setting [1]), over 6.50; against h P2X3 (Table 7) it was over 6.50.

As to `Cc1ccc(CNc2ncnc3c(OC4CCOCC4)cc(-c4ccc(F)cn4)cc23)nn1` [Example 30, 6-(5-fluoro-2-pyridyl)-N-[(6-methylpyridazin-3-yl)methyl]-8-tetrahydropyran-4-yloxy-quinazolin-4-amine], the pIC50 is 4.50 to 5.50 on h P2X2/3, 5.50 to 6.50 at h P2X3 (setting [1]) and 5.50 to 6.50 against h P2X3 (Table 7).

As to `COc1cc(-c2ncc(C)cn2)cc2c(NCc3ccn(C)c(=O)c3)ncnc12` [Example 151, 4-(((8-methoxy-6-(5-methylpyrimidin-2-yl)quinazolin-4-yl)amino)methyl)-1-methylpyridin-2(1H)-one], the pIC50 is 5.50 to 6.50 on h P2X2/3, over 6.50 at h P2X3 (setting [1]) and over 6.50 on h P2X3 (Table 7).

For `COc1cc(-c2ncc(C)s2)cc2c(NCc3ccc(Cl)cn3)ncnc12` [Example 117, N-((5-chloropyridin-2-yl)methyl)-8-methoxy-6-(5-methylthiazol-2-yl)quinazolin-4-amine], the pIC50 on h P2X2/3 is 5.50 to 6.50; at h P2X3 (setting [1]) it was over 6.50; on h P2X3 (Table 7) it was over 6.50.

Consider `COc1cc(-c2ncc(C)s2)cc2c(N[C@H](C)c3ccc(C)nn3)ncnc12` [Example 5, (R)-8-methoxy-N-(1-(6-methylpyridazin-3-yl)ethyl)-6-(5-methylthiazol-2-yl)quinazolin-4-amine], for which the pIC50 on h P2X2/3 was 5.50 to 6.50; on h P2X3 (setting [1]) it was over 6.50; at h P2X3 (Table 7), over 6.50.

On to `COc1cc(-c2ccc(F)cn2)cc2c(NCc3cnc(C(F)(F)F)nc3)ncnc12` [Example 146, 6-(5-fluoropyridin-2-yl)-8-methoxy-N-((2-(trifluoromethyl)pyrimidin-5-yl)methyl)quinazolin-4-amine], for which the negative-log IC50 (pIC50) is 4.50 to 5.50 at h P2X2/3, over 6.50 on h P2X3 (setting [1]) and over 6.50 against h P2X3 (Table 7).

`COc1cc(-c2ccc(F)cn2)cc2c(NC(C)c3nnc(C)s3)ncnc12` (single isomer, unassigned) [Example 173, 6-(5-fluoropyridin-2-yl)-8-methoxy-N-(1-(5-methyl-1,3,4-thiadiazol-2-yl)ethyl)quinazolin-4-amine]: the pIC50 on h P2X2/3 was 4.50 to 5.50; on h P2X3 (setting [1]) it was 5.50 to 6.50; against h P2X3 (Table 7), 5.50 to 6.50.
